Measurements as given in paper PMC11240878, “Synthesis, enzyme inhibition assay, and molecular modeling study of novel pyrazolines linked to 4-methylsulfonylphenyl scaffold: antitumor activity and cell cycle analysis” (RSC Advances, 2024).

Experiments:
59 cancer cell lines = experiment: NCI 59 cancer cell line panel, single dose; type: cell-based, human; conditions: 10 μM single dose; for MG% (mean growth percent): 59 cell lines; for Mean GI% Breast cancer: breast cancer subpanel; for Mean GI% Leukemia: leukemia subpanel
HL-60 cells [1] = experiment: Cell cycle analysis by flow cytometry; type: cell-based, human; conditions: at IC50 concentration
Method: Flow cytometry measures cell growth in different cell cycle phases (G0–G1, S, G2/M and pre-G1).[33,77] This study aimed to find out how the target compounds affect the growth of cancer cells by examining at how they change the cell cycle and cause apoptosis in HL-60 cells.
The cell cycle analysis was conducted similarly to our prior study, using the leukemia HL-60 cell line. The cells were stained with the DNA fluorochrome PI and analyzed using a FACSCalibur flow cytometer.[33,77]

MOLT-4 = experiment: NCI single-dose GI%, leukemia; type: cell-based, human; conditions: MOLT-4, leukemia; 10.0 μM in one dose
HOP-62 = experiment: NCI single-dose GI%, NSC lung; type: cell-based, human; conditions: HOP-62, NSC lung; 10.0 μM in one dose
COX-2 = target: T1, COX-2 (Ovis aries, UniProt P79208); experiment: Colorimetric COX-2 inhibition assay
T1 sequence (P79208 17-603): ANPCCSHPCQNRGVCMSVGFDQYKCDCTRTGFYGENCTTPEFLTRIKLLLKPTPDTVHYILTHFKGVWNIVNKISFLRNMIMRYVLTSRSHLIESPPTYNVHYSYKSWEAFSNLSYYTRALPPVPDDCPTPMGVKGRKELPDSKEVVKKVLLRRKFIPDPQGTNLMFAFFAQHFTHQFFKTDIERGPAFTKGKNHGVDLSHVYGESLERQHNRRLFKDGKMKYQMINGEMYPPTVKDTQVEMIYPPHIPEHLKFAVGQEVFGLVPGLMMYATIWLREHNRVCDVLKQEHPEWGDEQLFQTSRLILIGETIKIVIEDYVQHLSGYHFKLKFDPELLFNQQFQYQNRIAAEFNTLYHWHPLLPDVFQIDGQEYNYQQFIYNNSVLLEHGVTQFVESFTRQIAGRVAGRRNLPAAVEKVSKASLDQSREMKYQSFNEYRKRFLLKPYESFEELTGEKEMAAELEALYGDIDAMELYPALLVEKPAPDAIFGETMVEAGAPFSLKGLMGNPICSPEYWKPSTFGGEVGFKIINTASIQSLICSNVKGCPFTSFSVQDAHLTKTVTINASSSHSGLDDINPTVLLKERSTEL

NCI-H522 = experiment: NCI single-dose GI%, NSC lung; type: cell-based, human; conditions: 10.0 μM in one dose
MDA-MB-231 = experiment: cells; conditions: Homo sapiens, MDA-MB-231, 48 h, read-out: In vitro cytotoxicity IC50
Method: (§1) The antitumor experiment was conducted on 59 human tumor cell lines derived from nine different human tissues, following the procedure of the Drug Evaluation Branch at the NCI, Bethesda, MD.[33]

leukemia HL-60 = experiment: cells; conditions: Homo sapiens, HL-60, 48 h, read-out: In vitro cytotoxicity IC50
Method: as §1

[2] = test system: caspase-3 in MDA-MB-231 cells; experiment: Apoptotic markers assay, caspase-3; type: cell-based, human; conditions: at IC50 concentration, vs untreated control
Method: (§2) The levels of Bax (apoptosis promoter), Bcl-2 (apoptosis inhibitor), and apoptosis coordination enzymes (caspase-3 and caspase-9) were measured.[78–80]
(§3) Apoptotic markers experiment was performed according to reported procedure using MDA-MB-231 cancer cell line.[78–80]

CAKI-1 = experiment: NCI single-dose GI%, renal; type: cell-based, human; conditions: CAKI-1, renal; 10.0 μM in one dose
Bax in MDA-MB-231 cells = experiment: Apoptotic markers assay, Bax; type: cell-based, human; conditions: at IC50 concentration, vs untreated control
Method: as §2, §3

UACC-257 = experiment: NCI single-dose GI%, melanoma; type: cell-based, human; conditions: UACC-257, melanoma; 10.0 μM in one dose
HER2 = HER2 (Homo sapiens, UniProt P04626); experiment: HER2 tyrosine kinase inhibition assay
Chain of HER2 (P04626 23-1255): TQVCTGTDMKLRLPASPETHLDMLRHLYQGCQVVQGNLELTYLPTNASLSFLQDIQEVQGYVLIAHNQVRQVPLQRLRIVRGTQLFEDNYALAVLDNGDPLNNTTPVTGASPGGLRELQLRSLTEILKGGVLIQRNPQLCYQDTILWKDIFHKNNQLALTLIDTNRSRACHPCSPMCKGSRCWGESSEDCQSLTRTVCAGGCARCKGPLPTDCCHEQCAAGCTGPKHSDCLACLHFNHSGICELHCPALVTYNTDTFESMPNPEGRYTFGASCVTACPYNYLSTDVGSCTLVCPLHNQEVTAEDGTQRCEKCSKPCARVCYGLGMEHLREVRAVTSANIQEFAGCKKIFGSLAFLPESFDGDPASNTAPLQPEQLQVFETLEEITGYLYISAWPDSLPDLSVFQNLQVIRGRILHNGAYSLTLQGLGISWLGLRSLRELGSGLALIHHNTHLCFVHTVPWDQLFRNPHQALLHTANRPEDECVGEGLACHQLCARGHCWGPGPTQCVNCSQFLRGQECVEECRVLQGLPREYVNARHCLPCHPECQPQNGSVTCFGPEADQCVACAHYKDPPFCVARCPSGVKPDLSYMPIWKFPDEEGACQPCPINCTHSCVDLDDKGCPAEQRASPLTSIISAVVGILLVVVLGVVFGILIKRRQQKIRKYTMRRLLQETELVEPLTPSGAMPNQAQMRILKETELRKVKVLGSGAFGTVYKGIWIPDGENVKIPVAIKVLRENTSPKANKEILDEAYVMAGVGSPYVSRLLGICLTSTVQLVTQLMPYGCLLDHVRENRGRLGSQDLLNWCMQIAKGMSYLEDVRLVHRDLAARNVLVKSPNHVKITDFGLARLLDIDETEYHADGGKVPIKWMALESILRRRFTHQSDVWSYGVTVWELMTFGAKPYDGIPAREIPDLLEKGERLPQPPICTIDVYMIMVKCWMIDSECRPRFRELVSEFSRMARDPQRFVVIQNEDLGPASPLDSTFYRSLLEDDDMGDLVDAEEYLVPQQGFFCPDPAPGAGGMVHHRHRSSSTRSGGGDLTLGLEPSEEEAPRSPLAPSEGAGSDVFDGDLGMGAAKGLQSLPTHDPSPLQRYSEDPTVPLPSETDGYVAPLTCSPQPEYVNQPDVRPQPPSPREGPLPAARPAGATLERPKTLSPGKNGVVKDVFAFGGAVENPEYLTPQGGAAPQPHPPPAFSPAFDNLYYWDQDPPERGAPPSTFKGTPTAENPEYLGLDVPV

HT29 = experiment: NCI single-dose GI%, colon; type: cell-based, human; conditions: 10.0 μM in one dose
in vitro = conditions: human
Method: (§4) A normal fibroblast-like fetal lung cell line (WI-38) was used to further investigate the therapeutic safety of the newly synthesized hybrids and evaluate their selective cytotoxicity toward normal and tumor cells.[33,77]
as §1

[3] = test system: WI-38 normal fibroblast cells; experiment: in vitro; conditions: ratio of WI38 IC50 to cancer cell IC50 values
Method: as §4, §1

EKVX = experiment: NCI single-dose GI%, NSC lung; type: cell-based, human; conditions: 10.0 μM in one dose
MCF7 = experiment: NCI single-dose GI%, breast; type: cell-based, human; conditions: 10.0 μM in one dose
U251 = experiment: NCI single-dose GI%, CNS; type: cell-based, human; conditions: 10.0 μM in one dose
VEGFR2 = VEGFR2 (Homo sapiens, UniProt P35968); experiment: VEGFR2 tyrosine kinase inhibition assay
Chain of VEGFR2 (P35968 20-1356): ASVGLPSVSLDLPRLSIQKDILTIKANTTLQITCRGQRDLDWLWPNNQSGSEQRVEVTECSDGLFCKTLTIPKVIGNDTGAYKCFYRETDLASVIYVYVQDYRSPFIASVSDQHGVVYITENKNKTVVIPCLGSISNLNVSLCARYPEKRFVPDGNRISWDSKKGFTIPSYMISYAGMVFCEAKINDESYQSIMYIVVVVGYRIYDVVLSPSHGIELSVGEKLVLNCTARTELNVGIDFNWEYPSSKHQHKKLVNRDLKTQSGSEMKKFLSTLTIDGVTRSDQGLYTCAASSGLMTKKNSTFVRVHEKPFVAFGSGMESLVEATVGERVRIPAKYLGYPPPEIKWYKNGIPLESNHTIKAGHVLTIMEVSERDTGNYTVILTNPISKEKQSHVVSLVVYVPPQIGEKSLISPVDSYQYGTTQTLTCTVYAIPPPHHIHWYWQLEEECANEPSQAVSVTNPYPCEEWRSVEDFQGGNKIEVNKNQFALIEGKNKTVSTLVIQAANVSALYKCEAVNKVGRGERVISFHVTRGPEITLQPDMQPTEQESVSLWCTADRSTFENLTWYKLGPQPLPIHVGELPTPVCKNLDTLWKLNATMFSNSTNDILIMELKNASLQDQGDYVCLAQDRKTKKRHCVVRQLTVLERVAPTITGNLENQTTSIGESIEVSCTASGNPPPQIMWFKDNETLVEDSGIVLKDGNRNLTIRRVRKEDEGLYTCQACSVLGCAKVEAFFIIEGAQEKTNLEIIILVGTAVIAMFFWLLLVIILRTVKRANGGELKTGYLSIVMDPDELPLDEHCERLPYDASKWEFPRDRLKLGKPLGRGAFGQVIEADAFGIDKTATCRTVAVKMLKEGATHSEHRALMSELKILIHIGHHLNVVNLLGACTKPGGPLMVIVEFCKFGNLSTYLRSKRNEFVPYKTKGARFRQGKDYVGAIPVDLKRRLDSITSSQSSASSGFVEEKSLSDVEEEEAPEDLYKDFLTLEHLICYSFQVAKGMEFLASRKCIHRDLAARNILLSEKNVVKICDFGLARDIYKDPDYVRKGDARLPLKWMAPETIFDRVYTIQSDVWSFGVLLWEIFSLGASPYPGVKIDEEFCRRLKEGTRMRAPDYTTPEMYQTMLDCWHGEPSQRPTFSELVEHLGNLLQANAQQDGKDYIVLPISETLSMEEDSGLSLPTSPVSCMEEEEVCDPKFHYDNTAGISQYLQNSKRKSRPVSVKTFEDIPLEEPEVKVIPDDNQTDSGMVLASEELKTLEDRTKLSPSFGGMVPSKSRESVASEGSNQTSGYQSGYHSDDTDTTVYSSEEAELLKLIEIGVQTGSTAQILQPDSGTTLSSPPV

COLO 205 = experiment: NCI single-dose GI%, colon; type: cell-based, human; conditions: COLO 205, colon; 10.0 μM in one dose
[4] = test system: breast adenocarcinoma MCF-7; experiment: cells; conditions: Homo sapiens, MCF7, 48 h, read-out: In vitro cytotoxicity IC50, MCF-7; MTT, 48 h drug exposure; mean ± SD of three experiments
HL-60 cells [5] = experiment: Annexin V-FITC/PI apoptosis assay; type: cell-based, human; conditions: 24 h, at IC50 concentration
Text: Most anticancer agents kill cancer cells via an apoptosis induction mechanism.[33,77]
As per our earlier study, we induced apoptosis using the leukemia HL-60 cell line and a widely recognized Annexin 5-FITC/PI detection kit. The cell line samples were examined utilizing a FACSCalibur flow cytometer.[33,77]

[6] = test system: Bcl-2 in MDA-MB-231 cells; experiment: Apoptotic markers assay, Bcl-2; type: cell-based, human; conditions: at IC50 concentration, vs untreated control
Method: as §2

SK-OV-3 = experiment: NCI single-dose GI%, ovarian; type: cell-based, human; conditions: SK-OV-3, ovarian; 10.0 μM in one dose
T-47D = experiment: NCI single-dose GI%, breast; type: cell-based, human; conditions: 10.0 μM in one dose

| SMILES | PCE (positive cytotoxic effect: ratio of cell lines with growth inhibition >10% to total cell lines) (59 cancer cell lines) | MG% (mean growth percent) (59 cancer cell lines) | Mean GI% Breast cancer (59 cancer cell lines) | Mean GI% Leukemia (59 cancer cell lines) | % G0–G1 (HL-60 cells [1]) | % G2–M (HL-60 cells [1]) | % Pre-G1 (HL-60 cells [1]) | % S (HL-60 cells [1]) | phase of cell cycle arrest (HL-60 cells [1]) | GI% (MOLT-4) | GI% (HOP-62) | IC50 (COX-2) | GI% (NCI-H522) | IC50 (MDA-MB-231) | IC50 (leukemia HL-60) | Casp3 gene expression (fold change) [2] | GI% (CAKI-1) | Bax gene expression (fold change) (Bax in MDA-MB-231 cells) | GI% (UACC-257) | IC50 (HER2) | also measured |
| --- | --- | --- | --- | --- | --- | --- | --- | --- | --- | --- | --- | --- | --- | --- | --- | --- | --- | --- | --- | --- | --- |
| CS(=O)(=O)c1ccc(C(=O)N2N=C(c3ccccc3)CC2c2ccccc2O)cc1 (stereo not drawn) [Compound 18h, (5-(2-Hydroxyphenyl)-3-phenyl-4,5-dihydro-1H-pyrazol-1-yl)(4-(methylsulfonyl)phenyl)methanone] | 51/59 | 72.20% | 24% | 46% | 53.27% | 17.07% | 10.77% | 29.66% | S/G2 phase | 62% | 47% | 19.3 ± 0.72 µM | 55% | 7.18 ± 0.32 µM | 8.99 ± 0.4 µM | 5.559 fold change | 33% | 2.154 fold change | 39% | 0.253 ± 0.008 µM | GI% (HT29): 20%; IC50 at 48 h (in vitro): 40.9 ± 1.81 µM; Mean tumor selectivity index (WI38/HL60, MCF7, and MDA-MB-231) [3]: 4.51; GI% (EKVX): 41%; GI% (MCF7): 22%; GI% (U251): 48%; IC50 (VEGFR2): 0.135 ± 0.009 µM; GI% (COLO 205): 20%; IC50 [4]: 12.4 µM; Apoptosis Early (HL-60 cells [5]): 6.18%; Apoptosis Late (HL-60 cells [5]): 3.34%; Apoptosis Total (percentage of annexin V-FITC positive cells) (HL-60 cells [5]): 10.77%; Necrosis (HL-60 cells [5]): 1.25%; Bcl2 gene expression (fold change) [6]: 0.423 fold change; GI% (SK-OV-3): 25%; GI% (T-47D): 30% |
| Cc1ccc(C2=NN(C(=O)c3ccc(S(C)(=O)=O)cc3)C(c3ccc(C)cc3)C2)cc1 (stereo not drawn) [Compound 18g, (3,5-Bis(4-tolyl)-4,5-dihydro-1H-pyrazol-1-yl)(4-(methylsulfonyl)phenyl)methanone] | 48/59 | 72.98% | 31% | 63% | 43.52% | 29.09% | 13.69% | 27.39% | S/G2 phase | 56% | 26% | 94 ± 4.41 µM | 73% | 4.07 ± 0.18 µM | 10.4 ± 0.68 µM | 3.945 fold change | 43% | 3.054 fold change | 40% | 0.496 ± 0.016 µM | GI% (HT29): 15%; IC50 at 48 h (in vitro): 26.2 ± 1.16 µM; Mean tumor selectivity index (WI38/HL60, MCF7, and MDA-MB-231) [3]: 3.73; GI% (EKVX): 25%; GI% (MCF7): 52%; GI% (U251): 23%; IC50 (VEGFR2): 0.168 ± 0.003 µM; GI% (COLO 205): 33%; IC50 [4]: 11.7 ± 0.96 µM; Apoptosis Early (HL-60 cells [5]): 4.47%; Apoptosis Late (HL-60 cells [5]): 7.84%; Apoptosis Total (percentage of annexin V-FITC positive cells) (HL-60 cells [5]): 13.69%; Necrosis (HL-60 cells [5]): 1.38%; Bcl2 gene expression (fold change) [6]: 0.252 fold change; GI% (SK-OV-3): 26%; GI% (T-47D): 32% |
| CS(=O)(=O)c1ccc(C(=O)N2N=C(c3ccccc3)CC2c2ccc(F)cc2)cc1 (stereo not drawn) [Compound 18c, (5-(4-Fluorophenyl)-3-phenyl-4,5-dihydro-1H-pyrazol-1-yl)(4-(methylsulfonyl)phenyl)methanone] | 21/59 | 90.58% | 16% | 35% | 51.19% | 17.53% | 8.07% | 31.28% | S/G2 phase | 39% | 26% | 127 ± 8.23 µM | 48% | 12.5 ± 0.56 µM | 8.43 ± 1.7 µM | 7.453 fold change | 22% | 4.413 fold change | 32% | 1.43 ± 0.047 µM | GI% (HT29): 19%; IC50 at 48 h (in vitro): 34.8 ± 1.54 µM; Mean tumor selectivity index (WI38/HL60, MCF7, and MDA-MB-231) [3]: 3.02; GI% (EKVX): 15%; GI% (MCF7): 11%; GI% (U251): 12%; IC50 (VEGFR2): 0.218 ± 0.005 µM; GI% (COLO 205): 22%; IC50 [4]: 16.2 ± 0.72 µM; Apoptosis Early (HL-60 cells [5]): 2.91%; Apoptosis Late (HL-60 cells [5]): 4.4%; Apoptosis Total (percentage of annexin V-FITC positive cells) (HL-60 cells [5]): 8.06%; Necrosis (HL-60 cells [5]): 0.76%; Bcl2 gene expression (fold change) [6]: 0.184 fold change; GI% (SK-OV-3): 14%; GI% (T-47D): 24% |
